What follows are molecules tested against T1, HIF-PH2 (EGLN1) (Homo sapiens, UniProt Q9GZT9) (assay: HIF-PH assay (14CO2 capture, peptide-dependent turnover)). Settings: Concentration 22.22 μM.
T1 construct: made in house; host or cells: insect Hi5 cells
Format: biochemical
Description: Ketoglutaric acid α-[1-^14C]-sodium salt, alpha-ketoglutaric acid sodium salt, and HPLC purified peptide may be obtained from commercial sources, e.g., Perkin-Elmer (Wellesley Mass.), Sigma-Aldrich, and SynPep Corp. (Dublin Calif.), respectively. Peptides for use in the assay may be fragments of HIFα as described above or as disclosed in International Publication WO 2005/118836, incorporated by reference herein. For example, a HLF peptide for use in the HIF-PH assay is [methoxycoumarin]-DLDLEALAPYIPADDDFQL-amide. HIF-PH, e.g., HIF-PH2 (EGLN1), can be expressed in, e.g., insect Hi5 cells, and partially purified, e.g., through a SP ion exchange chromatography column. Enzyme activity is determined by capturing ^14CO2 using an assay described by Kivirikko and Myllyla (1982, Methods Enzymol. 82:245-304). Assay reactions contain 50 mM HEPES (pH 7.4), 100 μM α-ketoglutaric acid sodium salt, 0.30 μCi/mL ketoglutaric acid α-[1-^14C]-sodium salt, 40 μM FeSO4, 1 mM ascorbate, 1541.8 units/mL Catalase, with or without 50 μM peptide substrate and various concentrations of compound of the invention. Reactions are initiated by addition of HIF-PH enzyme.
The peptide-dependent percent turnover is calculated by subtracting percent turnover in the absence of peptide from percent turnover in the presence of substrate peptide. Percent inhibition and IC50 are calculated using peptide-dependent percent turnover at given inhibitor concentrations. Calculation of IC50 values for each inhibitor is conducted using GraFit software (Erithacus Software Ltd., Surrey UK). […]

T1 sequence (Q9GZT9 whole entry, species assumed): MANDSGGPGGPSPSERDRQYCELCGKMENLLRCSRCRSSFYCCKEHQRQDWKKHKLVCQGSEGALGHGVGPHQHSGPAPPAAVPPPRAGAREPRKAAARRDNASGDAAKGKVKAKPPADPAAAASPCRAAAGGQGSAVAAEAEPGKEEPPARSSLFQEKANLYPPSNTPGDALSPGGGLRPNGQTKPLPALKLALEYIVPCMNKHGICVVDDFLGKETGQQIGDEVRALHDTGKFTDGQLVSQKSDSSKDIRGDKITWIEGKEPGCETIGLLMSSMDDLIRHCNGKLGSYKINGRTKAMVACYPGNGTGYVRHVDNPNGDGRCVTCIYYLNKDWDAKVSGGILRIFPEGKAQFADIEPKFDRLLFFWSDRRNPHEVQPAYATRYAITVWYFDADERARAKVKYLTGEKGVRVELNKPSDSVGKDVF

| Compound | inhibition at 22.22 µM [%] |
| --- | --- |
| O=C(O)CNC(=O)c1nc(-c2ccncc2)c2onc(-c3ccccc3)c2c1O [Example 36, [(4-Hydroxy-3-phenyl-7-pyridin-4-yl-isoxazolo[5,4-c]pyridine-5-carbonyl)-amino]-acetic acid] | 98.5 |
| O=C(O)CNC(=O)c1nc(-c2ccccn2)c2onc(-c3ccccc3)c2c1O [Example 37, [(4-Hydroxy-3-phenyl-7-pyridin-2-yl-isoxazolo[5,4-c]pyridine-5-carbonyl)-amino]-acetic acid] | 99.6 |
| O=C(O)CNC(=O)c1nc(C(F)(F)F)c2onc(-c3ccccc3)c2c1O [Example 38, [(4-Hydroxy-3-phenyl-7-trifluoromethyl-isoxazolo[5,4-c]pyridine-5-carbonyl)-amino]-acetic acid] | 97.8 |
| O=C(O)CNC(=O)c1ncc2onc(-c3ccc(OC(F)(F)F)cc3)c2c1O [Example 39, {[4-Hydroxy-3-(4-trifluoromethoxy-phenyl)-isoxazolo[5,4-c]pyridine-5-carbonyl]-amino}-acetic acid] | 98.7 |
| N#Cc1cccc(-c2noc3cnc(C(=O)NCC(=O)O)c(O)c23)c1 [Example 67, {[3-(3-Cyano-phenyl)-4-hydroxy-isoxazolo[5,4-c]pyridine-5-carbonyl]-amino}-acetic acid] | 98.4 |
| N#Cc1ccc(-c2noc3cnc(C(=O)NCC(=O)O)c(O)c23)cc1 [Example 68, {[3-(4-Cyano-phenyl)-4-hydroxy-isoxazolo[5,4-c]pyridine-5-carbonyl]-amino}-acetic acid] | 97.4 |
| Cc1noc2cnc(C(=O)NCC(=O)O)c(O)c12 [Example 70, [(4-Hydroxy-3-methyl-isoxazolo[5,4-c]pyridine-5-carbonyl)-amino]-acetic acid] | 99.3 |

The remaining lines, values ahead:

| inhibition at 22.22 µM [%] | Compound |
| --- | --- |
| 98.8 | CC(C)(C)c1ccc(-c2noc3cnc(C(=O)NCC(=O)O)c(O)c23)cc1 [Example 40, {[3-(4-tert-Butyl-phenyl)-4-hydroxy-isoxazolo[5,4-c]pyridine-5-carbonyl]-amino}-acetic acid] |
| 99.4 | O=C(O)CNC(=O)c1nc(Br)c2onc(-c3ccccc3)c2c1O [Example 41, [(7-Bromo-4-hydroxy-3-phenyl-isoxazolo[5,4-c]pyridine-5-carbonyl)-amino]-acetic acid] |
| 98.9 | COc1ccc(-c2noc3c(O)c(C(=O)NCC(=O)O)nc(-c4ccccc4)c23)cc1 [Example 55, {[7-Hydroxy-3-(4-methoxy-phenyl)-4-phenyl-isoxazolo[4,5-c]pyridine-6-carbonyl]-amino}-acetic acid] |
| 98.6 | O=C(O)CNC(=O)c1nc(C#Cc2ccccc2)c2c(-c3ccccc3)noc2c1O [Example 57, [(7-Hydroxy-3-phenyl-4-phenylethynyl-isoxazolo[4,5-c]pyridine-6-carbonyl)-amino]-acetic acid] |
| 99.8 | O=C(O)CNC(=O)c1ncc2onc(-c3ccc(Oc4ccccc4)cc3)c2c1O [Example 69, {[4-Hydroxy-3-(4-phenoxy-phenyl)-isoxazolo[5,4-c]pyridine-5-carbonyl]-amino}-acetic acid] |

Same assay, conditions: Concentration 200.00 μM

| Compound | inhibition at 200 µM [%] |
| --- | --- |
| C[C@H](NC(=O)c1ncc2c(-c3ccccc3)noc2c1O)C(=O)O [Example 43, (S)-2-[(7-Hydroxy-3-phenyl-isoxazolo[4,5-c]pyridine-6-carbonyl)amino]-propionic acid] | 98.7 |
| O=C(O)CNC(=O)c1ncc2c(-c3ccc(F)cc3)noc2c1O [Example 45, {[3-(4-Fluoro-phenyl)-7-hydroxy-isoxazolo[4,5-c]pyridine-6-carbonyl]-amino}-acetic acid] | 98.6 |
| O=C(O)CNC(=O)c1ncc2c(-c3cccs3)noc2c1O [Example 47, [(7-Hydroxy-3-thiophen-2-yl-isoxazolo[4,5-c]pyridine-6-carbonyl)-amino]-acetic acid] | 99 |
| O=C(O)CNC(=O)c1ncc2c(-c3ccncc3)noc2c1O [Example 48, [(7-Hydroxy-3-pyridin-4-yl-isoxazolo[4,5-c]pyridine-6-carbonyl)-amino]-acetic acid] | 100 |
| O=C(O)CNC(=O)c1ncc2c(-c3ccc(Br)o3)noc2c1O [Example 49, {[3-(5-Bromo-furan-2-yl)-7-hydroxy-isoxazolo[4,5-c]pyridine-6-carbonyl]-amino}-acetic acid] | 96.3 |
| Cc1nc(C(=O)NCC(=O)O)c(O)c2onc(-c3ccccc3)c12 [Example 50, [(7-Hydroxy-4-methyl-3-phenyl-isoxazolo[4,5-c]pyridine-6-carbonyl)-amino]-acetic acid] | 99.5 |
| N#Cc1nc(C(=O)NCC(=O)O)c(O)c2onc(-c3cccs3)c12 [Example 51, [(4-Cyano-7-hydroxy-3-thiophen-2-yl-isoxazolo[4,5-c]pyridine-6-carbonyl)-amino]-acetic acid] | 98.8 |
| COc1ccc(-c2noc3c(O)c(C(=O)NCC(=O)O)nc(C#N)c23)cc1 [Example 53, {[4-Cyano-7-hydroxy-3-(4-methoxy-phenyl)-isoxazolo[4,5-c]pyridine-6-carbonyl]-amino}-acetic acid] | 99.4 |
| COc1ccc(-c2noc3c(O)c(C(=O)NCC(=O)O)nc(C)c23)cc1 [Example 56, {[7-Hydroxy-3-(4-methoxy-phenyl)-4-methyl-isoxazolo[4,5-c]pyridine-6-carbonyl]-amino}-acetic acid] | 98.9 |
| C#Cc1nc(C(=O)NCC(=O)O)c(O)c2onc(-c3ccccc3)c12 [Example 58, [(4-Ethynyl-7-hydroxy-3-phenyl-isoxazolo[4,5-c]pyridine-6-carbonyl)-amino]-acetic acid] | 100 |
| COc1ccc(-c2noc3c(O)c(C(=O)NCC(=O)O)nc(Cn4cccn4)c23)cc1 [Example 60, {[7-Hydroxy-3-(4-methoxy-phenyl)-4-pyrazol-1-ylmethyl-isoxazolo[4,5-c]pyridine-6-carbonyl]-amino}-acetic acid] | 100 |
| O=C(O)CNC(=O)c1nc(Cc2ccccc2)c2c(-c3ccccc3)noc2c1O [Example 62, [(4-Benzyl-7-hydroxy-3-phenyl-isoxazolo[4,5-c]pyridine-6-carbonyl)-amino]-acetic acid] | 100 |
| O=C(O)CNC(=O)c1ncc2c(C3=CCCCC3)noc2c1O [Example 65, [(3-Cyclohex-1-enyl-7-hydroxy-isoxazolo[4,5-c]pyridine-6-carbonyl)-amino]-acetic acid] | 100 |

Other lines, results leading:

| inhibition at 200 µM [%] | Compound |
| --- | --- |
| 98.4 | O=C(O)CNC(=O)c1ncc2c(-c3ccccc3)noc2c1O [Example 42, [(7-Hydroxy-3-phenyl-isoxazolo[4,5-c]pyridine-6-carbonyl)-amino]-acetic acid] |
| 82.2 | C[C@@H](NC(=O)c1ncc2c(-c3ccccc3)noc2c1O)C(=O)O [Example 44, (R)-2-[(7-Hydroxy-3-phenyl-isoxazolo[4,5-c]pyridine-6-carbonyl)-amino]-propionic acid] |
| 99.4 | COc1ccc(-c2noc3c(O)c(C(=O)NCC(=O)O)ncc23)cc1 [Example 46, {[7-Hydroxy-3-(4-methoxy-phenyl)-isoxazolo[4,5-c]pyridine-6-carbonyl]-amino}-acetic acid] |
| 98.6 | N#Cc1nc(C(=O)NCC(=O)O)c(O)c2onc(-c3ccc(F)cc3)c12 [Example 52, {[4-Cyano-3-(4-fluoro-phenyl)-7-hydroxy-isoxazolo[4,5-c]pyridine-6-carbonyl]-amino}-acetic acid] |
| 99.9 | N#Cc1nc(C(=O)NCC(=O)O)c(O)c2onc(-c3ccc(Br)o3)c12 [Example 54, {[3-(5-Bromo-furan-2-yl)-4-cyano-7-hydroxy-isoxazolo[4,5-c]pyridine-6-carbonyl]-amino}-acetic acid] |
| 99.3 | O=C(O)CNC(=O)c1nc(C2CC2)c2c(-c3cccs3)noc2c1O [Example 59, [(4-Cyclopropyl-7-hydroxy-3-thiophen-2-yl-isoxazolo[4,5-c]pyridine-6-carbonyl)-amino]-acetic acid] |
| 100 | CC(=O)c1nc(C(=O)NCC(=O)O)c(O)c2onc(-c3ccccc3)c12 [Example 61, [(4-Acetyl-7-hydroxy-3-phenyl-isoxazolo[4,5-c]pyridine-6-carbonyl)-amino]-acetic acid] |
| 100 | O=C(O)CNC(=O)c1nc(-c2cn(Cc3ccccc3)nn2)c2c(-c3ccccc3)noc2c1O [Example 63, {[4-(1-Benzyl-1H-[1,2,3]-triazol-4-yl)-7-hydroxy-3-phenyl-isoxazolo[4,5-c]pyridine-6-carbonyl]-amino}-acetic acid] |
| 94.2 | O=C(O)CNC(=O)c1nc(C(F)(F)F)c2c(-c3ccccc3)noc2c1O [Example 64, [(7-Hydroxy-3-phenyl-4-trifluoromethyl-isoxazolo[4,5-c]pyridine-6-carbonyl)-amino]-acetic acid] |
| 99.1 | CCc1noc2c(O)c(C(=O)NCC(=O)O)ncc12 [Example 66, [(3-Ethyl-7-hydroxy-isoxazolo[4,5-c]pyridine-6-carbonyl)-amino]-acetic acid] |
